Experimental data as given in publication PMC13242511, “Disrupting Notch signalling by a small molecule inhibiting dihydroorotate dehydrogenase activity” (Scientific Reports, 2026).
pIC50: −log10 of the molar value. Values joined by “and” are separate entries in the source; they are usually repeats but may differ in a detail not shown here. Equal entries are not always repeated. “Also recorded” adds a separate entry of the source. Where two headings read alike, the source gives them in different places.

Tests used:
Notch signalling = assay: Notch reporter assay (12xCSL firefly luciferase / renilla luciferase, HEK293T Notch1ΔE reporter cell line clone #A1-11); format: cell-based; design: AUC Notch: scale not given here; conditions: for AUC Notch: area under the 14-point dose-response curve; for Bottom (Emax): Emax indicated independent from assay constraints, in % (unit assumed); for reporter signal in % of DMSO: 10 µM, inhibitor controls, Supplemental Fig. 2A; for Notch assay: overview in comparison to compound C, Supplemental Fig. 9; for AUC 9p Notch reporter assay: 9p dose response; for AUC 9p Notch reporter assay / AUC 14p Notch reporter assay: AUCs averaged when replicates available; for 14p Notch reporter assay averaged IC50s (log): log10 of averaged IC50
Summary of the method: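 Compounds at two-fold concentration in 10 µl medium were brought to one-fold by adding 10 µl holding 4000 Notch reporter cells (clone #A1-11) per well of a 384-well plate. After 24 h, Promega dual-GLO firefly and renilla luciferase were read on a SpectraMaxi3. Dose-response curves were fitted with a log(inhibitor) vs. response variable-slope model.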

γ-secretase complex = γ-secretase complex (Homo sapiens, UniProt P49768); assay: APP-C99 counter assay (GSI reporter assay); format: cell-based; design: AUC APP: scale not given here; conditions: for Hill-slope: bottom constrained to Emax of positive control LY-411575; for AUC APP: area under the 14-point dose-response curve, replicates averaged; for APP assay: overview in comparison to compound C, Supplemental Fig. 9; for AUC 9p APP-counter assay / AUC. 14p APP-counter assay: AUCs averaged when replicates available; for Bottom (Emax): Emax indicated independent from assay constraints
Summary of the method: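 γ-secretase activity reported via APP cleavage driving firefly luciferase, normalized to renilla. After 24 h transfection then 24 h compound exposure, signals were read (0.1 s integration). Triplicate dose–responses fitted by variable-slope four-parameter model for IC50; area under curve also derived.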

[1] = Homo sapiens, HEK-293T, 14-point dose-response, Fig. 4, read-out: approximated IC50, Notch reporter assay
[2] = 14-point, unit inferred, replicates averaged, read-out: approxiated IC50s 14p Notch reporter assay
[3] = 14p Notch assay DR, log10 value, Notch inhibitor controls, no bottom constraint named
[4] = 14p dose response, single replicates, read-out: approximated IC50s 14p Notch reporter assay

| SMILES | pIC50 (Notch signalling; [1]) | AUC Notch (Notch signalling; replicates averaged) | Hill-slope (γ-secretase complex; 14p APP assay DR) | AUC APP (γ-secretase complex) | Bottom (Emax) (Notch signalling; 14p Notch assay DR) | reporter signal in % of DMSO (Notch signalling) | Notch assay (Notch signalling) | APP assay (γ-secretase complex) | other results |
| --- | --- | --- | --- | --- | --- | --- | --- | --- | --- |
| CCc1c(C)sc(NC(=O)C2CCC2)c1C(=O)NCc1cccnc1 [CBK307414] | 5.12 | 311.0 | 0.0127 | 416.6 | – | – | – | – | pIC50 (Notch signalling; Homo sapiens, HEK-293T, 14p Notch assay DR, bottom constrained to Emax of positive control RO4929097, read-out: approximated IC50): 5.13; IC50 (Notch signalling; Homo sapiens, HEK-293T, 14p Notch assay DR, log10 value, bottom constrained to Emax of positive control RO4929097, read-out: approximated LogIC50 (converted)): 7.94 µM |
| CCOC(=O)c1c(NC(=O)NCc2cccnc2)sc2c1CCC2 [CBK307585] | 5.18 | 338.0 | -0.6 | 444.5 | 71.6 | – | – | – | – |
| Cc1cc(C)c2[nH]c(C(=O)N[C@H](c3ccccc3)c3ccnn3C)c(C)c2c1 [CBK315984] | – | 607.0 | -1.0 | 698.8 | 96.7 | – | – | – | approximated IC50, Notch reporter assay (Notch signalling; 14-point dose-response, Fig. 4): Indeterminate |
| NC(=O)c1c(NC(=O)NC2CCCCC2)sc2c1CCCC2 [CBK431895] | 4.47 | 341.0 | -0.00462 | 411.0 | 87.8 | – | – | – | – |
| CC1=C(C(=O)OC2CCCCC2)C(c2ccc([N+](=O)[O-])cc2)C2=C(CC(C)(C)CC2=O)N1 (stereo not drawn) [FLI-06, reference compound] | – | – | – | – | – | 62% | active, potency n.d. | active, potency n.d. | – |
| C[C@H](NC(=O)[C@@H](O)c1cc(F)cc(F)c1)C(=O)N[C@@H]1C(=O)N(C)c2ccccc2-c2ccccc21 [LY-411575, reference compound] | – | 373.0 | – | 428.9 | 46.0 and 46.9 | 46% | highest potency; also recorded: highest activity | highest potency | AUC 9p Notch reporter assay (Notch signalling): 1.91E+02; pIC50 (Notch signalling; [2]): 9.06; Hill-slope (Notch signalling; 14p Notch assay DR, Notch inhibitor controls, no bottom constraint named): -1.3; approximated LogIC50 [M] (Notch signalling; [3]): -9.0 M; Hill-Slope 14p Notch reporter assay (Notch signalling; 14p dose response): -1.3; pIC50 (Notch signalling; [4]): 9.07 and 9.05; AUC 14p Notch reporter assay (Notch signalling; 14p dose response): 3.73E+02; 14p Notch reporter assay averaged IC50s (log) (Notch signalling; 14p dose response): -9.1; Hill-Slope 9p APP counter assay averaged (γ-secretase complex; 9p dose response): -1.0; AUC 9p APP-counter assay (γ-secretase complex; 9p dose response): 1.95E+02; Bottom (Emax) (γ-secretase complex; 14p APP assay DR): 44.6 and 46.0; AUC. 14p APP-counter assay (γ-secretase complex; 14p dose response): 4.29E+02 |
| CC(C)[C@H](O)C(=O)N[C@@H](C)C(=O)N[C@@H]1C(=O)N(C)CCc2ccccc21 [LY-450139, Semagacestat, reference compound] | – | – | – | – | – | 52% | active, potency n.d. | active, potency n.d. | – |
| C[C@H](NC(=O)Cc1cc(F)cc(F)c1)C(=O)N[C@@H]1C(=O)N(C)c2ccccc2-c2ccccc21 [YO-01027, reference compound] | – | 383.0 | – | 461.6 | 43.4 and 46.0 | – | higher potency | higher potency | AUC 9p Notch reporter assay (Notch signalling): 1.99E+02; pIC50 (Notch signalling; [2]): 8.77; approximated LogIC50 [M] (Notch signalling; [3]): -8.7 M; pIC50 (Notch signalling; [4]): 8.70 and 8.82; AUC 14p Notch reporter assay (Notch signalling; 14p dose response): 3.83E+02; 14p Notch reporter assay averaged IC50s (log) (Notch signalling; 14p dose response): -8.8; Hill-Slope 9p APP counter assay averaged (γ-secretase complex; 9p dose response): -1.7; AUC 9p APP-counter assay (γ-secretase complex; 9p dose response): 2.30E+02; pIC50 (γ-secretase complex; 9p dose response, averaged, read-out: 9p APP counter assay averaged IC50s): 7.77; pIC50 (γ-secretase complex; 9p dose response, read-out: approximated IC50s 9p APP counter assay): 7.77; pIC50 (γ-secretase complex; 14-point, unit inferred, some fits outside of tested concentration range, read-out: approximated IC50s 14p APP-counter assay): 7.68; Bottom (Emax) (γ-secretase complex; 14p APP assay DR): 40.6 and 48.3; pIC50 (γ-secretase complex; 14p APP assay DR, Notch inhibitor controls, no bottom constraint named, read-out: approximated IC50): 7.80 and 7.57; approximated LogIC50 [M] (γ-secretase complex; 14p APP assay DR, log10 value, Notch inhibitor controls, no bottom constraint named): -7.8 M and -7.6 M; AUC. 14p APP-counter assay (γ-secretase complex; 14p dose response): 4.62E+02; 14p APP counter assay averaged IC50s (log) (γ-secretase complex; 14p dose response, log10 of averaged IC50): -7.7 |
